Measurements taken from patent publication US20230021448A1, “COMPOUNDS AND COMPOSITIONS FOR TREATING CONDITIONS ASSOCIATED WITH STING ACTIVITY” (IFM Due, Inc., priority 2019, published 2023).

Biological target: T1, STING (Homo sapiens, UniProt Q86WV6, G230A/H232R/R293Q/R71H)
T1 construct: host or cells: THP1-Dual KO-IFNAR2 cells
Experiment: STING reporter assay: luciferase reporter activity in THP1-Dual KO-IFNAR2 cells stimulated with 2'3'cGAMP
Assay type: cell-based
Conditions: 2′3′cGAMP 15 μM final, 24h, read-out: hSTING: EC50
Description: STING pathway activation by the compounds described herein was measured using THIP1-Dua1™ cells (KO-IFNAR2).
TTIP1-Dual™ KO-IFNAR2 Cells (obtained from invivogen) were maintained in RPMI, 10% FCS, 5 ml P/S, 2 mM L-glut, 10 mM Hepes, and 1 mM sodium pyruvate. Compounds were spotted in empty 384 well tissue culture plates (Greiner 781182) by Echo for a final concentration of 0.0017-100 μM. Cells were plated into the TC plates at 40 μL per well, 2×10E6 cells/mL. For activation with STING ligand, 2′3′cGAMP (MW 718.38, obtained from Invivogen), was prepared in Optimem media.
The following solutions were prepared for each 1×384 plate: • Solution A: 2 mL Optimem with one of the following stimuli: • […] • Solution B: 2 mL Optimem with 60 μL Lipofectamine 2000->Incubate 5 min at RT
2 mL of solution A and 2 ml Solution B was mixed and incubated for 20 min at room temperature (RT). 20 uL of transfection solution (A+B) was added on top of the plated cells, with a final 2′3′cGAMP concentration of 15 μM. The plates were then centrifuged immediately at 340 g for 1 minute, after which they were incubated at 37° C., 5% C02, >98% humidity for 24h. Luciferase reporter activity was then measured. EC50 values were calculated by using standard methods known in the art.
Luciferase reporter assay: 10 μL of supernatant from the assay was transferred to white 384-plate with flat bottom and squared wells. One pouch of QUANTI-Luc™ Plus was dissolved in 25 mL of water. 100 μL of QLC Stabilizer per 25 mL of QUANTI-Luc™ Plus solution was added. 50 μL of QUANTI-Luc™ Plus/QLC solution per well was then added. Luminescence was measured on a Platereader (e.g., Spectramax I3X (Molecular Devices GF3637001)).
Luciferase reporter activity was then measured. EC50 values were calculated by using standard methods known in the art.

T1 sequence (Q86WV6 whole entry R71H/G230A/H232R/R293Q): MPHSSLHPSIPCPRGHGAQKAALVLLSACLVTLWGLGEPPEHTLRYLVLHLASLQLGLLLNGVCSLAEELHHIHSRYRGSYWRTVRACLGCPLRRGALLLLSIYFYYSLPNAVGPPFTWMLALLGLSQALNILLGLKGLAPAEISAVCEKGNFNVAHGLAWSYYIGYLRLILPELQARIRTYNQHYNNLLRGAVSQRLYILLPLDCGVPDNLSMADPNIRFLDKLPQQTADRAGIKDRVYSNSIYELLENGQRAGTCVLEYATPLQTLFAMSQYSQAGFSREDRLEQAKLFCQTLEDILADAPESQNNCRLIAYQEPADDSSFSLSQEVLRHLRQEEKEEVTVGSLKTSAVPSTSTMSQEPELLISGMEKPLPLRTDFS

Structure (SMILES) | EC50
O=C(Nc1c[nH]c2cc(F)c(F)cc12)C(=O)N[C@@H]1CCC[C@H](Oc2ccc(C(F)(F)F)cc2)C1 (single isomer, unassigned) [Compound 220] | 200 to 1000 nM
O=C(Nc1c[nH]c2cc(F)c(F)cc12)C(=O)N[C@H]1CCC[C@H](Oc2ccc(C(F)(F)F)cc2)C1 (single isomer, unassigned) [Compound 227] | 40 to 200 nM
O=C(Nc1c[nH]c2cc(F)c(F)cc12)C(=O)N[C@@H]1CCC[C@@H](Oc2ccc(C(F)(F)F)cc2)C1 (single isomer, unassigned) [Compound 228] | 200 to 1000 nM
CCC(NC(=O)C(=O)Nc1c[nH]c2cc(F)c(F)cc12)c1cccc(C(F)(F)F)c1 (single isomer, unassigned) [Compound 235] | 200 to 1000 nM
CCC(NC(=O)C(=O)Nc1c[nH]c2cc(F)c(F)cc12)c1cccc(C(F)(F)F)c1 (single isomer, unassigned) [Compound 236] | 200 to 1000 nM
O=C(Nc1c[nH]c2cc(F)c(F)cc12)C(=O)NC(c1ccccc1)C(F)(F)F (single isomer, unassigned) [Compound 239, N-(5,6-difluoro-1H-indol-3-yl)-N′-(2,2,2-trifluoro-1-phenylethyl)oxalamide] | 200 to 1000 nM
O=C(Nc1c[nH]c2cc(F)c(F)cc12)C(=O)NC(c1ccccc1)C(F)(F)F (single isomer, unassigned) [Compound 240, N-(5,6-difluoro-1H-indol-3-yl)-N′-(2,2,2-trifluoro-1-phenylethyl)oxalamide] | 200 to 1000 nM
O=C(Nc1c[nH]c2cc(F)c(F)cc12)C(=O)NC1CCOC2(CCCC2)C1 (single isomer, unassigned) [Compound 243] | 1000 to 5000 nM
O=C(Nc1c[nH]c2cc(F)c(F)cc12)C(=O)NC1CCOC2(CCCC2)C1 (single isomer, unassigned) [Compound 244] | 1000 to 5000 nM
O=C(Nc1c[nH]c2cc(F)c(F)cc12)C(=O)NC1CCC2(CCCC2)C1 (single isomer, unassigned) [Compound 245] | 200 to 1000 nM
O=C(Nc1c[nH]c2cc(F)c(F)cc12)C(=O)NC1CCC2(CCCC2)C1 (single isomer, unassigned) [Compound 246] | 200 to 1000 nM
O=C(Nc1c[nH]c2cc(F)c(F)cc12)C(=O)NC1CCC2(CCCCC2)C1 (single isomer, unassigned) [Compound 247] | 200 to 1000 nM
O=C(Nc1c[nH]c2cc(F)c(F)cc12)C(=O)NC1CCCC2(CCCCC2)C1 (single isomer, unassigned) [Compound 257] | 200 to 1000 nM
O=C(Nc1c[nH]c2cc(F)c(F)cc12)C(=O)NC1CCCC2(CCCCC2)C1 (single isomer, unassigned) [Compound 258] | 200 to 1000 nM
CC(NC(=O)C(=O)Nc1c[nH]c2cc(F)c(F)cc12)c1cc(C(F)(F)F)c(Cl)cn1 (single isomer, unassigned) [Compound 260] | 1000 to 5000 nM
CC(CN(C)c1ccccc1)NC(=O)C(=O)Nc1c[nH]c2cc(F)c(F)cc12 (single isomer, unassigned) [Compound 320] | 200 to 1000 nM
CC(NC(=O)C(=O)Nc1c[nH]c2cc(F)c(F)cc12)c1ccc(C(F)(F)F)cc1 (single isomer, unassigned) [Compound 330] | 40 to 200 nM
O=C(NCC(c1ccccc1)C(F)F)C(=O)Nc1c[nH]c2cc(F)c(F)cc12 (single isomer, unassigned) [Compound 347] | 200 to 1000 nM
O=C(Nc1c[nH]c2cc(F)c(F)cc12)C(=O)N[C@@H]1CCC2(CCCCC2)C1 (stereo in doubt) [Compound 248] | 40 to 200 nM
C[C@H](NC(=O)C(=O)Nc1c[nH]c2cc(F)c(F)cc12)c1cc(C(F)(F)F)c(Cl)cn1 (stereo in doubt) [Compound 259] | 40 to 200 nM
C[C@@H](CN(C)c1ccccc1)NC(=O)C(=O)Nc1c[nH]c2cc(F)c(F)cc12 (stereo in doubt) [Compound 319] | 200 to 1000 nM
C[C@H](NC(=O)C(=O)Nc1c[nH]c2cc(F)c(F)cc12)c1ccc(C(F)(F)F)cc1 (stereo in doubt) [Compound 329] | 40 to 200 nM
O=C(Nc1ccc(C(F)(F)F)cn1)C(=O)Nc1c[nH]c2cc(F)c(F)cc12 [Compound 101] | 200 to 1000 nM
O=C(Nc1cccc(C(F)(F)F)c1)C(=O)Nc1c[nH]c2cc(F)c(F)cc12 [Compound 102] | 200 to 1000 nM
Cc1cc(NC(=O)C(=O)Nc2c[nH]c3cc(F)c(F)cc23)cc(C(F)(F)F)c1 [Compound 103, N^1-(5,6-difluoro-1H-indol-3-yl)-N^2-(3-methyl-5-(trifluoromethyl)phenyl)oxalamide] | 40 to 200 nM
O=C(Nc1ccc(C2CCCCC2)nc1)C(=O)Nc1c[nH]c2cc(F)c(F)cc12 [Compound 104] | 200 to 1000 nM
O=C(Nc1ccc(C2CCOCC2)cc1)C(=O)Nc1c[nH]c2cc(F)c(F)cc12 [Compound 105] | 40 to 200 nM

Structure (SMILES) | EC50
Cc1ccc(CNC(=O)C(=O)Nc2c[nH]c3cc(F)c(F)cc23)cc1C(F)(F)F [Compound 107] | 40 to 200 nM
O=C(NCc1ccc(-c2ccccc2C(F)(F)F)cc1)C(=O)Nc1c[nH]c2cc(F)c(F)cc12 [Compound 108] | 200 to 1000 nM
O=C(Nc1c[nH]c2cc(F)c(F)cc12)C(=O)NC1CCC2(CCCCC2)CC1 [Compound 109] | 200 to 1000 nM
O=C(NCCC1CCC(F)(F)CC1)C(=O)Nc1c[nH]c2cc(F)c(F)cc12 [Compound 110] | 200 to 1000 nM
O=C(NCC1CC2C=CC1C2)C(=O)Nc1c[nH]c2cc(F)c(F)cc12 (centres unmarked) [Compound 111] | 200 to 1000 nM
O=C(NCC12CC3CC(CC(C3)C1)C2)C(=O)Nc1c[nH]c2cc(F)c(F)cc12 [Compound 112] | 1000 to 5000 nM
CCC1CCC(NC(=O)C(=O)Nc2c[nH]c3cc(F)c(F)cc23)CC1 (centres unmarked) [Compound 113] | 200 to 1000 nM
CN(C(=O)C(=O)Nc1c[nH]c2cc(F)c(F)cc12)c1ccc(C(F)(F)F)cc1 [Compound 114] | 1000 to 5000 nM
O=C(Nc1ccc(C(F)(F)F)cc1)C(=O)Nc1c[nH]c2cc(F)c(F)cc12 [Compound 115, N1-(5,6-difluoro-1H-indol-3-yl)-N2-(4-(trifluoromethyl)phenyl) oxalamide] | 40 to 200 nM
O=C(Nc1ccc(C(F)(F)F)cc1)C(=O)Nc1c[nH]c2ccccc12 [Compound 116, N1-(1H-indol-3-yl)-N2-(4-(trifluoromethyl)phenyl)oxalamide] | 200 to 1000 nM
CCC1CCN(C(=O)C(=O)Nc2c[nH]c3cc(F)c(F)cc23)CC1 [Compound 117] | 1000 to 5000 nM
O=C(NCCC1CCCCC1)C(=O)Nc1c[nH]c2cc(F)c(F)cc12 [Compound 118] | 40 to 200 nM
O=C(NCc1ccc(C(F)(F)F)cn1)C(=O)Nc1c[nH]c2cc(F)c(F)cc12 [Compound 119, N-(5,6-difluoro-1H-indol-3-yl)-N′-[[5-(trifluoromethyl)pyridin-2-yl]methyl]ethanediamide] | 40 to 200 nM
O=C(Nc1c[nH]c2cc(F)c(F)cc12)C(=O)NC1CCC(Cc2ccccc2)CC1 (centres unmarked) [Compound 122] | 200 to 1000 nM
O=C(NCc1ccc(C(F)(F)F)c(Cl)c1)C(=O)Nc1c[nH]c2cc(F)c(F)cc12 [Compound 123] | 40 to 200 nM
Cc1ccc(CNC(=O)C(=O)Nc2c[nH]c3ccc(Br)cc23)cc1C(F)(F)F [Compound 124] | 200 to 1000 nM
CC(C)(NC(=O)C(=O)Nc1c[nH]c2cc(F)c(F)cc12)c1ccc(C(F)(F)F)cc1 [Compound 125] | 200 to 1000 nM
O=C(NCc1cc(C(F)(F)F)ccn1)C(=O)Nc1c[nH]c2cc(F)c(F)cc12 [Compound 126] | 40 to 200 nM
O=C(Nc1c[nH]c2cc(F)c(F)cc12)C(=O)N[C@H]1CCN(c2ccccc2)C1 [Compound 127] | 40 to 200 nM
O=C(Nc1c[nH]c2cc(F)c(F)cc12)C(=O)N[C@@H]1CCN(c2ccccc2)C1 [Compound 128] | 1000 to 5000 nM
CC(C)n1cc(-c2ccc3[nH]cc(NC(=O)C(=O)NCc4ccc(C(F)(F)F)c(Cl)c4)c3c2)cn1 [Compound 129] | 200 to 1000 nM
Cc1ccc(Cl)cc1NC(=O)C(=O)Nc1c[nH]c2cc(F)c(F)cc12 [Compound 130, N1-(5-chloro-2-methylphenyl)-N2-(5,6-difluoro-1H-indol-3-yl)oxalamide] | 200 to 1000 nM
O=C(NCc1ccc(F)c(OC(F)(F)F)c1)C(=O)Nc1c[nH]c2cc(F)c(F)cc12 [Compound 131, N1-(5,6-difluoro-1H-indol-3-yl)-N2-(4-fluoro-3-(trifluoromethoxy)benzyl) oxalamide] | 200 to 1000 nM
Cc1c(CNC(=O)C(=O)Nc2c[nH]c3cc(F)c(F)cc23)cccc1C(F)(F)F [Compound 132, N1-(5,6-difluoro-1H-indol-3-yl)-N2-(2-methyl-3-(trifluoromethyl)benzyl)oxalamide] | 200 to 1000 nM
O=C(NCc1ccc(C(F)(F)F)c(Cl)c1)C(=O)Nc1c[nH]c2ccc(Br)cc12 [Compound 133] | 40 to 200 nM
Cc1ccc(CNC(=O)C(=O)Nc2c[nH]c3ccc(-c4cccc(CO)c4)cc23)cc1C(F)(F)F [Compound 134] | 200 to 1000 nM
